Measurements as given in ChEMBL document CHEMBL5154860 (J Med Chem, 2022).

Columns and labels:
in vivo [1] = details: Sprague-Dawley, rat, brain / plasma, iv, 0.2 mg/kg
in vivo [2] = details: Sprague-Dawley, rat, brain / plasma, iv, 0.2 mg/kg; remark: listed apart in the source
in vitro [3] = details: human, liver microsomes
in vivo [4] = details: Sprague-Dawley, rat, po, 10 mg/kg
in vivo [5] = details: Sprague-Dawley, rat, po, 10 mg/kg; remark: listed apart in the source
in vivo [6] = details: Sprague-Dawley, rat, iv, 1 mg/kg
in vivo [7] = details: Sprague-Dawley, rat, iv, 1 mg/kg; remark: listed apart in the source
in vitro [8] = details: Sprague-Dawley, rat, liver microsomes
in vivo [9] = details: Sprague-Dawley, rat, iv, 1 mg/kg; remark: listed apart in the source
in vivo [10] = details: Sprague-Dawley, rat, po, 10 mg/kg; remark: listed apart in the source
in vivo [11] = details: Sprague-Dawley, rat, iv, 1 mg/kg; remark: listed apart in the source
in vitro [12] = details: dog, MDCK-MDR1
in vivo [13] = details: Sprague-Dawley, rat, po, 10 mg/kg; remark: listed apart in the source
in vivo [14] = details: Sprague-Dawley, rat, iv, 1 mg/kg; remark: listed apart in the source

SMILES | Kp uu (in vivo [1]) | Kp (in vivo [2]) | also measured
Cn1ccnc1SCC1CCN(S(=O)(=O)c2ccc3ncsc3c2)CC1 | < 0.5 | < 0.48 | 
Cn1ccnc1SCC1CCN(S(=O)(=O)c2ccc3c(c2)CCO3)CC1 | 0.11 | 0.08 | CLint scaled at […], 1 µM (in vitro [3]): 1270 mL/min/kg
O=S(=O)(c1ccc2c(c1)CCO2)N1CCC(CSc2nccs2)CC1 | 0.23 | 0.27 | 
Cc1cn(C)c(SCC2CCN(S(=O)(=O)c3ccc4c(c3)CCO4)CC2)n1 | 0.19 | 0.07 | 
Cc1nc(SCC2CCN(S(=O)(=O)c3ccc4c(c3)CCO4)CC2)n(C)c1C | 0.32 | 0.22 | 
Cn1ccnc1SCC1CCN(S(=O)(=O)c2ccc3c(c2)OCO3)CC1 | 1.88 | 0.53 | 
Cn1ccnc1SC[C@H]1CCN(S(=O)(=O)c2ccc3c(c2)CCO3)C[C@@H]1F |  |  | AUC at 24 h (in vivo [4]): 830 ng·h/mL; Cmax at 24 h (in vivo [5]): 433 ng/mL; MRT at 24 h (in vivo [6]): 10.7 h; AUC at 24 h (in vivo [7]): 301 ng·h/mL; CLint scaled at […], 1 µM (in vitro [8]): 1770 mL/min/kg; Vd at 24 h (in vivo [9]): 36.6 L/kg; Tmax at 24 h (in vivo [10]): 0.25 h; half-life at 24 h (in vivo [11]): 14.6 h; CLint scaled at […], 1 µM (in vitro [3]): 318 mL/min/kg; Papp (in vitro [12]): 26.8 ×10⁻⁶ cm/s; bioavailability at 24 h (in vivo [13]): 27.6%; clearance at 24 h (in vivo [14]): 56.5 mL/min/kg
Cc1nnc(SCC2CCN(S(=O)(=O)c3ccc4c(c3)CCO4)CC2)s1 | 1.1 | 1.25 | 
CC(Sc1nccn1C)C1CCN(S(=O)(=O)c2ccc3c(c2)CCO3)CC1 (centres undefined) | 0.29 | 0.22 | 
